# Key:
# [1] = molecular target: T1, TyzAMtb (Mycobacterium tuberculosis, UniProt P95232)
# T1 construct: gene Rv2336
# [2] = molecular target: T2, TrzSMsmeg (Mycolicibacterium smegmatis, UniProt A0QUG4); format: biochemical
# T2 construct: gene MSMEG_2198
# T2 sequence (A0QUG4 1-723): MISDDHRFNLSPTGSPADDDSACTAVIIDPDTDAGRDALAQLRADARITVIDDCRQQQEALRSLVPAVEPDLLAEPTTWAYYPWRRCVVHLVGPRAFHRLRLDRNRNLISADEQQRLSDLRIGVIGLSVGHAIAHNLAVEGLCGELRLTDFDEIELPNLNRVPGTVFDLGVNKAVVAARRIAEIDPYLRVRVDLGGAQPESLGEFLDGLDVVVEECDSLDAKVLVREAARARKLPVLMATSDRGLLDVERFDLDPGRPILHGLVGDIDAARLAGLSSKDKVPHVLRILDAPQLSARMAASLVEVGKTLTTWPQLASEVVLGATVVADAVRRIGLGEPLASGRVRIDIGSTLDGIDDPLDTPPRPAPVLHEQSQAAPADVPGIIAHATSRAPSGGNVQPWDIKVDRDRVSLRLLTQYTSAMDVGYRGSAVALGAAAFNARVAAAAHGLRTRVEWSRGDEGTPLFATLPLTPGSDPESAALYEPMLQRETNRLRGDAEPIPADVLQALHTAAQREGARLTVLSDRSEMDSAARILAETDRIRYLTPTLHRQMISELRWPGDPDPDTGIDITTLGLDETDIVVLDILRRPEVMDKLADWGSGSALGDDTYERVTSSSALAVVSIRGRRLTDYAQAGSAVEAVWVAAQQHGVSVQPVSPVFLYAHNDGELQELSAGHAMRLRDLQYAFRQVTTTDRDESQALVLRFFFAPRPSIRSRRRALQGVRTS
# T1 sequence (P95232 1-322): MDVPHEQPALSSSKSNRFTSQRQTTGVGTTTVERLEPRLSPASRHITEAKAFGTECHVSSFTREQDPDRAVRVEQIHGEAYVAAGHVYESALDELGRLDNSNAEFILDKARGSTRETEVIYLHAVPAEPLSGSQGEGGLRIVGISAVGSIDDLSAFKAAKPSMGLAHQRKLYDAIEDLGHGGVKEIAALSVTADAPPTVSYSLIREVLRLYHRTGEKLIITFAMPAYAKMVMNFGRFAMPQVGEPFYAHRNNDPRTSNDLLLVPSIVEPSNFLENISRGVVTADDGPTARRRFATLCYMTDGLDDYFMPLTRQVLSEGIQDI
SMILES,LC-QTOF endpoint product detection [1],"LC-QTOF product detection, coupled with TrzAMtb [2]"
CCCCCCCCCCCC(=O)SCCNC(=O)CCNC(=O)[C@H](O)C(C)(C)COP(=O)(O)OP(=O)(O)OC[C@H]1O[C@@H](n2cnc3c(N)ncnc32)[C@H](O)[C@@H]1OP(=O)(O)O [C12:0-CoA],"we detected substantial amounts of C12:0-Tyr, C12:0-tyrazolone",
CCCC(=O)N[C@@H](Cc1c[nH]c2ccccc12)C(=O)O [C4:0-tryptophan],,"we detected significant amounts of C4:0-tryptophan, produced by TrzAMtb, and C4:0-tryptazolone"
Nc1ncnc2c1ncn2[C@@H]1O[C@H](COP(=O)(O)OP(=O)(O)OP(=O)(O)O)[C@@H](O)[C@H]1O [ATP],,only the N-acyl tryptophan was observed when ATP was omitted from the reaction
